Measurements from patent US20110183978A1, “Phenylpyri(mi)dinylazoles” (Bayer CropScience AG, priority 2009, published 2011).
Read-outs that look alike come from different tables or passages of the source.

Legend:
[1] = system: Sphaerotheca fuliginea; experiment: Example L: in vivo test on Sphaerotheca fuliginea (powdery mildew on cucumber/protective); details: Podosphaera fuliginea, 168 h, cucumber, protective, assessment 7 days after inoculation, read-out: % Wirkungsgrad
Description: (§1) Solvent: 49 parts by weight N,N-dimethylformamide Emulsifier: 1 part by weight alkylaryl polyglycol ethers For the preparation of a suitable active substance preparation, 1 part by weight of active substance is mixed with the stated quantities of solvent and emulsifier and the concentrate is diluted to the desired concentration with water. For the testing for protective activity, young cucumber plants are sprayed with the active substance preparation at the stated application dosage. One day after the treatment, the plants are inoculated with a spore suspension of Sphaerotheca fuliginea. Next, the plants are placed in a greenhouse at 70% relative atmospheric humidity and a temperature of 23° C. 7 days after the inoculation, the assessment takes place.

[2] = physchem
[3] = system: Fusarium graminearum; experiment: microbe, parasite or virus in culture; assay type: cell-based
[4] = system: Alternaria solani; experiment: Example M: in vivo test on Alternaria solani (leaf blotch disease/tomato/protective); details: 168 h, tomato, protective, 500 ppm active substance, assessed 7 days after inoculation, read-out: % Wirkungsgrad (activity level)
Description: as §1, with “tomato” for “cucumber”, “One day after the treatment, the plants are inoculated with a spore suspension of Sphaerotheca fuliginea. Next, the plants are placed in a greenhouse at 70% relative atmospheric humidity and a temperature of 23° C.” left out

[5] = LogPA (logP of the stated pure compound or, in a mixture, of the main isomer, 1-substituted 3-aryl-1H-pyrazole)
[6] = 72 h, read-out: % Inhibition des Pilzwachstums bei 50 μM
[7] = 168 h, read-out: % Inhibition der DON/AcDON produktion bei 50 μM

| Structure (SMILES) | pest or weed control at 500 ppm [1] [%] | chromatographic logP [2, 5] | inhibition at 50 µM [3, 6] [%] | inhibition at 50 µM [3, 7] [%] | pest or weed control at 500 ppm [4] [%] | chromatographic logP ([2]; LogPA) |
| --- | --- | --- | --- | --- | --- | --- |
| Cc1cc(-c2cn(C3CCCCO3)nc2-c2ccc(F)cc2)ccn1 (stereo not shown) [Compound 31] | 70 | 1.38 | – | – | – | – |
| O=C1OCCC1n1cc(-c2ccncc2)c(-c2ccc(F)cc2)n1 (stereo not shown) [Compound 142] | – | 0.95 | 0 | 89 | 94 | – |
| CC(C)Cn1cc(-c2ccncc2)c(-c2ccc(F)c(C#N)c2)n1 [Compound 154] | – | 1.65 | 0 | 93 | – | – |
| CC(C)Cn1cc(-c2ccnc(NC(=O)CC3CC3)c2)c(-c2ccc(F)cc2)n1 [Compound 158] | 97 | 3.03 | – | – | 94 | – |
| CC(C)C(=O)Cn1cc(-c2ccncc2)c(-c2ccc(F)cc2)n1 [Compound 178] | 75 | – | – | – | 94 | 1.37 |
| CC(C)OC(=O)Nc1cc(-c2cn(C(C)C)nc2-c2ccc(F)cc2)ccn1 [Compound 181] | 85 | – | – | – | 94 | 2.99 |
| CC(C)On1cc(-c2ccncc2)c(-c2ccc(F)cc2)n1 [Compound 227] | – | – | 100 | 100 | 95 | 1.58 |
| CC(C)Cn1cc(-c2ccncc2-c2ccc(F)cc2)c(-c2ccc(F)cc2)n1 [Compound 228] | 75 | – | – | – | 70 | 2.96 |
| CCC(=O)Nc1cc(-c2cn(CC(C)C)nc2-c2ccc(F)c(C#N)c2)ccn1 [Compound 230] | – | – | 0 | 97 | – | 2.67 |
| COCC(=O)Nc1cc(-c2cn(CC(C)C)nc2-c2ccc(F)c(C#N)c2)ccn1 [Compound 246] | – | – | 88 | 99 | – | 2.98 |
| COCC(=O)Nc1cc(-c2cn(Cc3ccccc3F)nc2-c2ccc(F)cc2)ccn1 [Compound 247] | – | – | 96 | 99 | 94 | 3.09 |
| CC(c1ccccc1F)n1cc(-c2ccnc(NC(=O)CC3CC3)c2)c(-c2ccc(F)cc2)n1 (stereo not shown) [Compound 250] | 84 | – | – | – | 94 | 3.54 |
| CC(C)Cn1cc(-c2ccnc(NC(=O)CC3CC3)c2)c(-c2ccc(F)c(C#N)c2)n1 [Compound 252] | – | – | 0 | 99 | – | 3.14 |
| O=C(CC1CC1)Nc1cc(-c2cn(Cc3ccccc3F)nc2-c2ccc(F)cc2)ccn1 [Compound 253] | 92 | – | – | – | 94 | 3.17 |
| CC(C)Cn1cc(-c2ccnc(NC(=O)C(C)C)c2)c(-c2ccc(F)c(C#N)c2)n1 [Compound 255] | – | – | 0 | 96 | – | 3.03 |
| CC(C)C(=O)Nc1cc(-c2cn(Cc3ccccc3F)nc2-c2ccc(F)cc2)ccn1 [Compound 256] | 92 | – | – | – | 94 | 3.03 |
| CC(C)C(=O)Nc1cc(-c2c(-c3ccc(F)cc3O)nn(C)c2OC(F)F)ccn1 [Compound 257] | – | – | 0 | 94 | 94 | 2.44 |
| CC(C)Cn1cc(-c2ccnc(NC(=O)C3CC3)c2)c(-c2ccc(F)c(C#N)c2)n1 [Compound 261] | – | – | 39 | 99 | – | 2.77 |
| O=C(Nc1cc(-c2cn(Cc3ccccc3F)nc2-c2ccc(F)cc2)ccn1)C1CC1 [Compound 262] | – | – | 35 | 99 | 95 | 2.77 |
| CCOC(=O)Nc1cc(-c2cn(CC(C)C)nc2-c2ccc(F)c(C#N)c2)ccn1 [Compound 265] | – | – | 9 | 98 | – | 3.19 |
| CCC(=O)Nc1cc(-c2cn(C(C(=O)OC)C(C)C)nc2-c2ccc(F)cc2)ccn1 (stereo not shown) [Compound 274] | 94 | – | – | – | 95 | 2.67 |
| CC(C)C(=O)Nc1cc(-c2cn(CC3OCCO3)nc2-c2ccc(F)cc2)ccn1 [Compound 276] | 99 | – | – | – | 95 | 1.99 |
| COC(=O)C(C(C)C)n1cc(-c2ccnc(NC(=O)C(C)C)c2)c(-c2ccc(F)cc2)n1 (stereo not shown) [Compound 277] | 94 | – | – | – | 100 | 3.05 |
